# Assay results published in US4059586A, “5-Alkoxy-2-alkyl-1,2,3,4-tetrahydroisoquinolene-8-carboxaldehyde and derivatives” (Marion Laboratories, Inc., priority 1976, dated 1977).
# Columns and labels:
# [1] = ALD50 in mice (acute toxicity, i.p.); settings: mouse, in vivo, ip
# Experimental: (§1) 5-hydroxy-2-methyl-7,8-cyclopentano[h]-1,2,3,4-tetrahydroisoquinoline has an ALD50 in mice of 100-150 mg/kg i.p. When administered as the base at 50 mg/kg i.p. to hypertensive rats the following percent change in systolic blood pressure was observed: […]
# [2] = test system: hypertensive rats; assay: percent change in systolic blood pressure in hypertensive rats; type: in vivo; settings: base at 50 mg/kg i.p.
# Experimental: as §1
smiles,measurement,setting,value
"CN1CCc2c(O)cc3c(c2C1)CCC3 [5-hydroxy-2-methyl-7,8-cyclopentano[h]-1,2,3,4-tetrahydroisoquinoline]",LD50,[1],100 to 150 mg/kg
same,percent change in systolic blood pressure,[2]; 1 hour,-18.9%
same,percent change in systolic blood pressure,[2]; 2 hours,-13.6%
same,percent change in systolic blood pressure,[2]; 4 hours,-11.2%
same,percent change in systolic blood pressure,[2]; 24 hours,-4.7%
